Measured values published in the supplement of paper PMC10307832.

How the values were obtained:
Test in all cases: relative viability (nuclei count vs DMSO), 5 days (fraction); higher = more cells survive
[1] = compound: CCn1c(-c2nonc2N)nc2c(C#CC(C)(C)O)ncc(OC[C@H]3CCCNC3)c21 + CCNC(=O)c1noc(-c2cc(C(C)C)c(O)cc2O)c1-c1ccc(CN2CCOCC2)cc1 [Luminespib] (partner 0.01 µM)
How it was run: (§1)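 Dosing by pin tool came one day after lung cancer cell lines were seeded in 1536-well plates, using either one drug or a fixed anchor-drug dose plus five library-drug doses (not always all listed) in √10 steps. After 5 days, nuclei were counted on 4× images. Relative viability is treated-well nuclei count divided by vehicle-well nuclei count, and values are medians of duplicate plates.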

[2] = compound: CCn1c(-c2nonc2N)nc2c(C#CC(C)(C)O)ncc(OC[C@H]3CCCNC3)c21 + Cc1nc(NC(=O)N2CCC[C@H]2C(N)=O)sc1-c1ccnc(C(C)(C)C(F)(F)F)c1 [Alpelisib] (partner 2 µM)
How it was run: as §1

BAM7 + Phenformin = compound: CCOC1=CC=CC=C1N=NC2=C(NN(C2=O)C3=NC(=CS3)C4=CC=CC=C4)C [BAM7] + N=C(N)NC(=N)NCCc1ccccc1 [Phenformin] (partner 250 µM)
How it was run: as §1

BAM7 + Navitoclax = compound: CCOC1=CC=CC=C1N=NC2=C(NN(C2=O)C3=NC(=CS3)C4=CC=CC=C4)C [BAM7] + CC1(C)CCC(c2ccc(Cl)cc2)=C(CN2CCN(c3ccc(C(=O)NS(=O)(=O)c4ccc(N[C@H](CCN5CCOCC5)CSc5ccccc5)c(S(=O)(=O)C(F)(F)F)c4)cc3)CC2)C1 [Navitoclax] (partner 0.5 µM)
How it was run: as §1

Cell Line | relative viability ([1]; first compound 0.01 µM) | relative viability ([1]; first compound 0.03162 µM) | relative viability ([1]; first compound 0.1 µM) | relative viability ([1]; first compound 0.3162 µM) | relative viability ([1]; first compound 1 µM) | relative viability ([2]; first compound 0.01 µM) | relative viability ([2]; first compound 0.03162 µM) | relative viability ([2]; first compound 0.1 µM) | relative viability ([2]; first compound 0.3162 µM) | relative viability ([2]; first compound 1 µM) | relative viability (BAM7 + Phenformin; first compound 0.5 µM) | relative viability (BAM7 + Phenformin; first compound 5 µM) | relative viability (BAM7 + Phenformin; first compound 15.81 µM) | relative viability (BAM7 + Phenformin; first compound 50 µM) | relative viability (BAM7 + Navitoclax; first compound 0.5 µM) | relative viability (BAM7 + Navitoclax; first compound 5 µM) | relative viability (BAM7 + Navitoclax; first compound 15.81 µM) | relative viability (BAM7 + Navitoclax; first compound 50 µM)
HCC-827 | 0.533 | 0.895 | 0.729 | 0.476 | 0.633 | 1.01 | 0.93 | 0.948 | 1 | 1.05 | 0.397 | 0.373 | 0.453 | 0.362 | 1.06 | 1.04 | 0.914 | 0.939
HOP-62 | 0.903 | 0.878 | 0.913 | 0.876 | 0.967 | 0.966 | 1.12 | 0.819 | 0.951 | 1.13 | 0.668 | 0.867 | 0.664 | 0.714 | 1.03 | 1.23 | 1.04 | 1.06
IA-LM | – | – | – | – | – | 0.728 | 0.733 | 0.987 | 0.654 | 0.613 | – | – | – | – | 0.689 | 0.556 | 0.556 | 0.658
LC-2-ad | 0.964 | 0.967 | 1.1 | 1.04 | 0.974 | 0.898 | 0.973 | 0.925 | 0.823 | 0.565 | 0.538 | 0.55 | 0.582 | 0.591 | 0.548 | 0.532 | 0.422 | 0.464
LCLC-97TM1 | 0.707 | 0.914 | 0.609 | 0.658 | 0.741 | – | 0.278 | 0.224 | 0.235 | 0.257 | 0.45 | 0.443 | 0.43 | 0.473 | 0.569 | 0.401 | 0.419 | 0.61
LCLC-103H | 0.936 | 0.912 | 0.94 | 0.735 | 0.863 | 0.984 | 0.945 | 1 | 0.848 | 0.953 | 0.334 | 0.354 | 0.336 | 0.327 | – | – | – | –
LK-2 | 0.168 | 0.177 | – | – | 0.14 | 1.24 | 1.27 | 0.984 | 0.916 | 1.01 | 0.507 | 0.389 | 0.466 | 0.636 | 0.896 | 0.893 | 0.886 | 0.85
LOU-NH91 | 0.34 | 0.365 | 0.374 | 0.319 | 0.316 | 0.751 | 0.795 | 0.736 | 0.706 | 0.732 | 0.689 | 0.795 | 0.66 | 0.66 | 0.708 | 0.75 | 0.69 | 0.655
LU99A | 0.254 | 0.21 | 0.239 | 0.307 | 0.248 | 0.586 | 0.558 | 0.538 | 0.504 | 0.47 | 0.802 | 0.819 | 0.896 | 0.94 | 0.787 | 0.849 | 0.72 | 0.821
LXF-289 | 0.604 | 0.822 | 0.627 | 0.617 | 0.701 | 1.04 | 1.02 | 1.01 | 0.983 | 1.04 | 0.556 | 0.552 | 0.524 | 0.516 | 0.96 | 1.04 | 0.93 | 0.907
NCI-H23 | 0.235 | 0.202 | 0.242 | 0.219 | 0.237 | 0.605 | 0.717 | 0.686 | 0.528 | 0.588 | 0.816 | 0.76 | 0.86 | 0.856 | 0.978 | 0.846 | 0.921 | 0.934
NCI-H322M | 0.784 | 0.847 | 0.855 | 0.665 | 0.682 | 0.868 | 0.765 | 0.121 | 0.853 | 0.813 | 0.77 | 0.805 | 0.806 | 0.799 | 1.3 | 1.22 | 1.18 | 1.06
NCI-H358 | 0.375 | 0.403 | 0.279 | 0.257 | 0.419 | 0.896 | 0.784 | 0.787 | 0.687 | 0.701 | 0.343 | 0.383 | 0.369 | 0.376 | – | – | – | –
NCI-H522 | 0.929 | 1.19 | 1.14 | 0.604 | 1.2 | – | – | – | – | – | 0.671 | 0.768 | 0.614 | 0.712 | – | – | – | –
NCI-H650 | 0.736 | 0.835 | 0.814 | 0.791 | 0.818 | 1.1 | 1.21 | 1.02 | 1.04 | 1.24 | 0.443 | 0.506 | 0.499 | 0.495 | – | – | – | –
NCI-H661 | 0.89 | 0.95 | 0.947 | 0.965 | 0.995 | 0.562 | 0.553 | 0.603 | 0.635 | 0.576 | 0.241 | 0.258 | 0.264 | 0.298 | – | – | – | –
NCI-H1299 | – | – | – | – | – | 1.05 | 1.06 | 1.05 | 1.03 | 0.968 | – | – | – | – | 1.05 | 1.08 | 1.07 | 1.06
NCI-H1563 | 0.466 | 0.641 | 0.5 | 0.463 | 0.505 | 0.872 | 0.913 | 0.913 | 0.837 | 0.826 | 0.62 | 0.685 | 0.654 | 0.685 | – | – | – | –
NCI-H1623 | 0.443 | 0.639 | 0.486 | 0.425 | 0.472 | – | – | – | – | – | 0.606 | 0.561 | 0.542 | 0.673 | – | – | – | –
NCI-H1650 | 0.187 | 0.202 | 0.182 | 0.199 | 0.206 | – | – | – | – | – | 0.473 | 0.501 | 0.484 | 0.472 | 1.46 | 1.26 | 1.15 | 1.15
NCI-H1703 | – | – | – | – | – | 0.333 | 0.374 | 0.392 | 0.28 | 0.299 | – | – | – | – | 1.35 | 1.13 | 0.941 | 0.872
NCI-H2342 | 0.91 | 0.678 | 0.67 | 0.625 | 0.757 | – | – | – | – | – | 0.59 | 0.739 | 0.594 | 0.521 | – | – | – | –
SW 900 | 0.189 | 0.185 | 0.18 | 0.16 | 0.162 | – | – | – | – | – | 0.548 | 0.544 | 0.576 | 0.759 | – | – | – | –
